Laboratory results: patent US20210363545A1, “GENETIC SELECTION MARKERS BASED ON ENZYMATIC ACTIVITIES OF THE PYRIMIDINE SALVAGE PATHWAY” (priority 2018, published 2021)
Converted amounts (≈) assume the structure as drawn. Read-outs that look alike come from different tables or passages of the source.

Key:
C. neoformans = assay: broth microdilution susceptibility testing according to EUCAST; type: cell-based, Cryptococcus neoformans
Description: (§1) To identify encoded A. fumigatus FcyB, FcyA, Uprt, Uk and CntA activities in further fungal species, it was searched for A. fumigatus orthologs in biotechnology-relevant species (Aspergillus niger, Aspergillus oryzae, P. chrysogenum, Komagataella phaffii alias Pichia pastoris, S. cerevisiae, Trichoderma reesei) and in virulence-relevant species (Candida albicans, Cryptococcus neoformans, F. oxysporum). Orthologs to A. fumigatus proteins with an overall identity 40% were considered as putative orthologs if activities could be confirmed by susceptibility testing following a broth microdilution based method according to EUCAST (see Table 10).

C. albicans = assay: as above; type: cell-based, Candida albicans
Description: as §1

A. niger = assay: as above; type: cell-based, Aspergillus niger
Description: as §1

A. fumigatus = assay: as above; type: cell-based, Aspergillus fumigatus
Description: as §1

A. oryzae = assay: as above; type: cell-based, Aspergillus oryzae
Description: as §1

T. reesei = assay: as above; type: cell-based, Trichoderma reesei
Description: as §1

S. cersvisiae = assay: as above; type: cell-based, S. cerevisiae
Description: as §1

P. chrysogenum = assay: as above; type: cell-based, Penicillium chrysogenum
Description: as §1

P. pastoris = assay: as above; type: cell-based, Komagataella phaffii alias Pichia pastoris
Description: as §1

F. oxysporum = assay: as above; type: cell-based, Fusarium oxysporum
Description: as §1

[1] = test system: A. fumigatus wt (A1160P+); assay: plate growth assay based susceptibility testing on solid AMM; type: cell-based, Aspergillus fumigatus; conditions: for pH dependence of activity: A. fumigatus
Protocol: (§2) pH 5 transcriptionally activates fcyB mediated uptake of 5FC. […] Inactivation of fcyB leads to resistance at 10 μg/ml 5FC at pH 5. Inactivation of fcyB leads to resistance on AMM (AMM Composition: 55.5 mM D-glucose, 20.0 mM ammonium tartrate, 7 mM KCl, 2.1 mM MgSO4 x 7H2O, 11.2 mM KH2PO4, 0.09 μM Na2B4O7 x 10H2O, 1 μM CuSO4 x 5H2O, 10 μM FeSO4 x 7H2O, 4.5 μM MnSO4 x 4H2O, 3.1 μM Na2MoO4 x 10H2O, […] ZnSO4 x 7H2O, 0.7% Agar; finally adjusted to pH 6.5 using NaOH before autoclaving) supplemented with 10 μg/ml 5FC and 100 mM citrate buffer pH 5.
(§3) Plate growth assay based susceptibility testing of A. fumigatus and P. chrysogenum was carried out using solid AMM, for F. oxysporum solid PDA was employed. Low pH medium contained 100 mM citrate buffer (pH5), neutral pH medium 100 mM MOPS buffer (pH7). For strains carrying PxylP tunable reporter genes (sGFP, mKate2PER, sGFPMIT, lacZ), 0.5% xylose was supplemented to the medium to induce gene expression.
(§4) Among other fungal species, A. fumigatus is susceptible to 5FC (Te Dorsthorst et al., Antimicrob Agents Chemother 48, 3147-3150 (2004); Te Dorsthorst et al., Antimicrobial agents and chemotherapy 49, 3341-3346 (2005)) and is therefore anticipated to harbor genes encoding CD and UPRT in addition to 5FC uptake. […] To analyze their role in 5FC as well as 5FU activity, fcyA and uprt was inactivated in the A. fumigatus strain A1160P+ (Fraczek, et al., The Journal of antimicrobial chemotherapy 68, 1486-1496 (2013)), termed wt here, using hygromycin and phleomycine resistance based deletion cassettes. Due to the interdependency of 5FC activity and environmental pH (Gsaller et al., Antimicrob Agents Chemother 62 (2018); Te Dorsthorst et al., Antimicrob Agents Chemother 48, 3147-3150 (2004)) the contribution of both enzymes as well as FcyB to 5FC and 5FU activity at both pH5 and pH7 was investigated.

A. fumigatus ΔfcyB = assay: as above; type: cell-based, Aspergillus fumigatus; conditions: for growth of ΔfcyB: 100 μg/ml
Protocol: as §2, §3, §4

A. fumigatus ΔfcyA = assay: as above; type: cell-based, Aspergillus fumigatus
Protocol: as §3
(§5) Coding sequences of fcyA and uprt were disrupted in wt (A1160P+) using hygromycin B and zeocin resistance cassettes, respectively. Therefore, deletion constructs comprising approximately 1 kb of 5′ and 3′ NTR linked to the central antibiotic resistance cassette were generated using fusion PCR as previously described (Fraczek, et al., The Journal of antimicrobial chemotherapy 68, 1486-1496 (2013)). Correct integration of constructs was confirmed by Southern analysis (see FIG. 14).
Among other fungal species, A. fumigatus is susceptible to 5FC (Te Dorsthorst et al., Antimicrob Agents Chemother 48, 3147-3150 (2004); Te Dorsthorst et al., Antimicrobial agents and chemotherapy 49, 3341-3346 (2005)) and is therefore anticipated to harbor genes encoding CD and UPRT in addition to 5FC uptake. […]

A. fumigatus Δuprt = assay: as above; type: cell-based, Aspergillus fumigatus; conditions: for growth of Δuprt strains: 200 μg/ml; for growth after inactivation of uprt: AMM supplemented with 100 μg/ml, pH7
Protocol: Furthermore, 5-FU supplementation inhibits ΔfcyB (see FIG. 4). Inactivation of uprt allows growth of A. fumigatus on AMM supplemented with 100 μg/ml 5FC or 5FU at pH7 (see FIG. 4). At concentrations 10-500 μg/ml 5FC or 5FU, independent of the pH (200 μg/ml 5FC as well as 5FU were also tested and the Δuprt strains grow).
as §3, §5, §4

[2] = test system: A. fumigatus with inactivated cntA; assay: growth on AMM supplemented with 5-FUR; type: cell-based, Aspergillus fumigatus; conditions: AMM supplemented with 100 μg/ml
[3] = test system: A. fumigatus with inactivated uk; assay: growth on AMM supplemented with 5-FUR; type: cell-based, Aspergillus fumigatus; conditions: AMM supplemented with 100 μg/ml
[4] = up to 100 μg/ml, regardless of the pH
[5] = Cryptococcus neoformans, pH 5, read-out: MIC
[6] = Cryptococcus neoformans, pH 7, read-out: MIC
[7] = Candida albicans, pH 5, read-out: MIC
[8] = Candida albicans, pH 7, read-out: MIC
[9] = Aspergillus niger, pH 5, read-out: MIC
[10] = Aspergillus niger, pH 7, read-out: MIC
[11] = Aspergillus fumigatus, pH 5, read-out: MIC
[12] = Aspergillus fumigatus, pH 7, read-out: MIC
[13] = Aspergillus oryzae, pH 5, read-out: MIC
[14] = Aspergillus oryzae, pH 7, read-out: MIC
[15] = Trichoderma reesei, pH 5, read-out: MIC
[16] = Trichoderma reesei, pH 7, read-out: MIC
[17] = Saccharomyces cerevisiae, pH 5, read-out: MIC
[18] = Saccharomyces cerevisiae, pH 7, read-out: MIC
[19] = Penicillium chrysogenum, pH 5, read-out: MIC
[20] = Penicillium chrysogenum, pH 7, read-out: MIC
[21] = Komagataella pastoris, pH 5, read-out: MIC
[22] = Komagataella pastoris, pH 7, read-out: MIC
[23] = Fusarium oxysporum, pH 5, read-out: MIC
[24] = Fusarium oxysporum, pH 7, read-out: MIC

Nc1nc(=O)[nH]cc1F [5FC, 5-flucytosine]
MIC (C. neoformans; pH 5): 0.39 µg/mL (≈ 3.02 µM)
MIC (C. neoformans; pH 7): 25 µg/mL (≈ 194 µM)
MIC (C. albicans; pH 5): 0.39 µg/mL (≈ 3.02 µM)
MIC (C. albicans; pH 7): 0.39 µg/mL (≈ 3.02 µM)
MIC (A. niger; pH 5): 0.39 µg/mL (≈ 3.02 µM)
MIC (A. niger; pH 7): 6.25 µg/mL (≈ 48.4 µM)
MIC (A. fumigatus; pH 5): 0.39 µg/mL (≈ 3.02 µM)
MIC (A. fumigatus; pH 7): 400 µg/mL (≈ 3100 µM)
MIC (A. oryzae; pH 5): 0.39 µg/mL (≈ 3.02 µM)
MIC (A. oryzae; pH 7): 400 µg/mL (≈ 3100 µM)
MIC (T. reesei; pH 5): >400 µg/mL
MIC (T. reesei; pH 7): >400 µg/mL
MIC (S. cersvisiae; pH 5): 0.39 µg/mL (≈ 3.02 µM)
MIC (S. cersvisiae; pH 7): 0.39 µg/mL (≈ 3.02 µM)
MIC (P. chrysogenum; pH 5): 0.39 µg/mL (≈ 3.02 µM)
MIC (P. chrysogenum; pH 7): 3.12 µg/mL (≈ 24.2 µM)
MIC (P. pastoris; pH 5): 0.39 µg/mL (≈ 3.02 µM)
MIC (P. pastoris; pH 7): 0.39 µg/mL (≈ 3.02 µM)
MIC (F. oxysporum; pH 5): >400 µg/mL
MIC (F. oxysporum; pH 7): >400 µg/mL
susceptibility of WT isolate ([1]; 10 μg/ml, AMM with 100 mM citrate buffer pH 5): highly susceptible
pH dependence of activity [1]: much more active at pH5
level that blocked wt growth ([1]; wt, pH5, plate growth): ≥ 1 µg/mL
level required to block wt growth ([1]; wt, pH7, plate growth): 100 µg/mL
resistance after inactivation of fcyB (A. fumigatus ΔfcyB; 10 μg/ml, pH 5, AMM): resistance
growth of ΔfcyB (A. fumigatus ΔfcyB; pH5): not able to grow
growth of ΔfcyB (A. fumigatus ΔfcyB; pH7): severe growth inhibition
resistance of ΔfcyA (A. fumigatus ΔfcyA; [4]): full resistance
growth of Δuprt strains (A. fumigatus Δuprt): grow
growth after inactivation of uprt (A. fumigatus Δuprt): allows growth
resistance of Δuprt (A. fumigatus Δuprt; [4]): full resistance

O=c1[nH]cc(F)c(=O)[nH]1 [5FU, 5-fluorouracil]
MIC (C. neoformans; [5]): 6.25 µg/mL (≈ 48 µM)
MIC (C. neoformans; [6]): 12.5 µg/mL (≈ 96.1 µM)
MIC (C. albicans; [7]): 50 µg/mL (≈ 384 µM)
MIC (C. albicans; [8]): 0.39 µg/mL (≈ 3 µM)
MIC (A. niger; [9]): 50 µg/mL (≈ 384 µM)
MIC (A. niger; [10]): 0.39 µg/mL (≈ 3 µM)
MIC (A. fumigatus; [11]): 50 µg/mL (≈ 384 µM)
MIC (A. fumigatus; [12]): > 400 µg/mL
MIC (A. oryzae; [13]): 200 µg/mL (≈ 1540 µM)
MIC (A. oryzae; [14]): 12.5 µg/mL (≈ 96.1 µM)
MIC (T. reesei; [15]): 100 µg/mL (≈ 769 µM)
MIC (T. reesei; [16]): 0.39 µg/mL (≈ 3 µM)
MIC (S. cersvisiae; [17]): 0.8 µg/mL (≈ 6.15 µM)
MIC (S. cersvisiae; [18]): 100 µg/mL (≈ 769 µM)
MIC (P. chrysogenum; [19]): 3.12 µg/mL (≈ 24 µM)
MIC (P. chrysogenum; [20]): 3.12 µg/mL (≈ 24 µM)
MIC (P. pastoris; [21]): 0.39 µg/mL (≈ 3 µM)
MIC (P. pastoris; [22]): > 400 µg/mL
MIC (F. oxysporum; [23]): 400 µg/mL (≈ 3080 µM)
MIC (F. oxysporum; [24]): > 400 µg/mL
growth of wt ([1]; 100 μg/ml, pH5 as well as pH7): blocked growth
pH dependence of activity [1]: pH independent
concentrations that fully inhibit A. fumigatus growth ([1]; typically, AMM): > 100 µg/mL
growth of ΔfcyB (A. fumigatus ΔfcyB; pH5 as well as pH7): blocked growth
effect of supplementation on ΔfcyB (A. fumigatus ΔfcyB; solid Aspergillus minimal medium, FIG. 4): inhibits
growth of ΔfcyA (A. fumigatus ΔfcyA; 100 μg/ml, pH5 as well as pH7): blocked growth
resistance of Δuprt (A. fumigatus Δuprt; 100 μg/ml, pH5 as well as pH7): high resistance
growth of Δuprt strains (A. fumigatus Δuprt): grow
growth after inactivation of uprt (A. fumigatus Δuprt): allows growth

O=c1[nH]c(=O)n([C@@H]2O[C@H](CO)[C@@H](O)[C@H]2O)cc1F [5FUR, 5-fluorouridine]
MIC (C. neoformans; [5]): 3.12 µg/mL (≈ 11.9 µM)
MIC (C. neoformans; [6]): 12.5 µg/mL (≈ 47.7 µM)
MIC (C. albicans; [7]): 0.39 µg/mL (≈ 1.49 µM)
MIC (C. albicans; [8]): 0.39 µg/mL (≈ 1.49 µM)
MIC (A. niger; [9]): 0.8 µg/mL (≈ 3.05 µM)
MIC (A. niger; [10]): 0.39 µg/mL (≈ 1.49 µM)
MIC (A. fumigatus; [11]): 6.25 µg/mL (≈ 23.8 µM)
MIC (A. fumigatus; [12]): > 400 µg/mL
MIC (A. oryzae; [13]): 6.25 µg/mL (≈ 23.8 µM)
MIC (A. oryzae; [14]): 12.5 µg/mL (≈ 47.7 µM)
MIC (T. reesei; [15]): 0.39 µg/mL (≈ 1.49 µM)
MIC (T. reesei; [16]): 0.39 µg/mL (≈ 1.49 µM)
MIC (S. cersvisiae; [17]): 6.25 µg/mL (≈ 23.8 µM)
MIC (S. cersvisiae; [18]): 25 µg/mL (≈ 95.3 µM)
MIC (P. chrysogenum; [19]): 3.12 µg/mL (≈ 11.9 µM)
MIC (P. chrysogenum; [20]): 3.12 µg/mL (≈ 11.9 µM)
MIC (P. pastoris; [21]): 0.39 µg/mL (≈ 1.49 µM)
MIC (P. pastoris; [22]): > 400 µg/mL
MIC (F. oxysporum; [23]): > 400 µg/mL
MIC (F. oxysporum; [24]): > 400 µg/mL
pH dependence of activity [1]: pH independent
concentrations that significantly inhibit A. fumigatus growth ([1]; AMM): > 100 µg/mL
resistance after inactivation of cntA [2]: significantly increases resistance
resistance after inactivation of uk [3]: increases resistance
